# Patent US20250064758A1 (priority 2023, published 2025)
# What was measured:
# WT SARS-COV-2 = assay: Golden Syrian hamster model of WT SARS-COV-2 infection; type: in vivo; details: 4 dpi
# SARS-COV = type: cell-based; details: plaque assay, 24 hpi
# SARS-COV-2 = details: hES-CMs, 0.1 MOI, 24 hpi, 50 uM Propranolol
# MERS-COV = type: cell-based; details: plaque assay
# plasma proteins = details: over a wide range of blood concentrations; cited from earlier work
# [1] = in vivo; cited from earlier work
smiles,measurement,setting,value
"CC(C)NCC(O)COc1cccc2ccccc12 (stereo not drawn) [Propranolol, 1-(isopropylamino)-3-(1-naphthyloxy)-2-propanol]",viral nucleocapsid protein expression in bronchiolar and alveolar epithelia,"WT SARS-COV-2; hamster lung, immunofluorescence staining",significantly reduced
same,WT SARS-COV-2 genome copies in lung tissues,"WT SARS-COV-2; hamster, 40 mg/kg intraperitoneal from 6 hpi, 4 doses, RT-qPCR, vs mock-treated, p<0.05",decreased
same,infectious virus titer in lung tissues,"WT SARS-COV-2; hamster, 40 mg/kg intraperitoneal from 6 hpi, 4 doses, plaque assay, vs mock-treated, p<0.01",decreased
same,number of infectious viruses (viral plaques),SARS-COV,effectively reduced
same,intracellular SARS-COV-2 viral load,SARS-COV-2; cell lysate,remarkably diminished
same,extracellular SARS-COV-2 viral load,SARS-COV-2; cell supernatant,remarkably diminished
same,number of infectious viruses (viral plaques),MERS-COV,effectively reduced
same,bound to plasma proteins,plasma proteins,more than 90%
same,elimination half-life,[1],approximately 8 hours
